EC50, CC50 and IC50 data for 17 compounds are collected here from ChEMBL document CHEMBL3763076, “Novel 2-phenyl-5-[(E)-2-(thiophen-2-yl)ethenyl]-1,3,4-oxadiazole and 3-phenyl-5-[(E)-2-(thiophen-2-yl)ethenyl]-1,2,4-oxadiazole derivatives as dengue virus inhibitors targeting NS5 polymerase” (Eur J Med Chem, 2016).

Data set [1] deals with dengue virus type 1. The data set is described as follows: Antiviral activity against clinical isolates of Dengue virus 1 Indonesia JKT 1186 TVP 949 infected in African green monkey Vero E6 cells assessed as reduction in viral RNA after 4 days by qRT-PCR method. Type of data set: functional, organism-based. The settings on record: Indonesia JKT 1186 TVP 949, Vero, 96 h. A general note: Real-time PCR tracks product formation cycle by cycle.

Data set [2] is described as follows: Cytotoxicity against African green monkey Vero E6 cells assessed as reduction in cell viability treated for 3 days measured on day 4 by cell titer-blue fluorescent assay. Conditions: chlorocebus sabaeus. Format: cell-based.
The subject of data set [3] is dengue virus type 3. In words: Antiviral activity against clinical isolates of Dengue virus 3 Bolivia 4025 infected in African green monkey Vero E6 cells assessed as reduction in viral RNA after 4 days by qRT-PCR method. The settings on record: Bolivia 4025, Vero, 96 h. Type of data set: functional, organism-based.
Data set [4] has as its system dengue virus type 2. In words: Antiviral activity against clinical isolates of Dengue virus 2 Martinique H/IMTSSA-MART/98-703 infected in African green monkey Vero E6 cells assessed as reduction in viral RNA after 4 days by qRT-PCR method. Conditions: Martinique H/IMTSSA-MART/98-703, Vero, 96 h. Type of data set: functional, organism-based.
For data set [5], the system named is dengue virus type 4. The data set is described as follows: Antiviral activity against clinical isolates of Dengue virus 4 Dakar HD34460 infected in African green monkey Vero E6 cells assessed as reduction in viral RNA after 4 days by qRT-PCR method. Format: functional, organism-based. The settings on record: 96 h.
Data set [6] relates to dengue virus type 4. In words: Antiviral activity against clinical isolates of Dengue virus 4 Martinique 017 infected in African green monkey Vero E6 cells assessed as reduction in viral RNA after 4 days by qRT-PCR method. Type of data set: functional, organism-based. The settings on record: Martinique 017, Vero, 96 h.
The subject of data set [7] is dengue virus type 4. In words: Antiviral activity against clinical isolates of Dengue virus 4. Format: functional, organism-based.
Data set [8] has as its system dengue virus type 1. In words: Antiviral activity against clinical isolates of Dengue virus 1. Type of data set: functional, organism-based.
In data set [9] the test system is dengue virus type 3. In words: Antiviral activity against clinical isolates of Dengue virus 3. Type of data set: functional, organism-based.
The subject of data set [10] is dengue virus type 2. In words: Antiviral activity against clinical isolates of Dengue virus 2. Type of data set: functional, organism-based.
Data set [11] is described as follows: Inhibition of Dengue virus 2 RdRp using homopolymeric uridine RNA as template assessed as reduction in RNA synthesis incubated for 10 mins by picogreen fluorescent assay. Also on record: species or system dengue virus type 2.

A word on the EC50: it is the concentration giving half of the maximal effect. The CC50 is the concentration at which the toxic effect on the cells reaches its halfway point. As for `C#C[C@@]1(O)[C@H](O)[C@@H](CO)O[C@H]1n1ccc2c(N)ncnc21`, the concentration giving a half-maximal response (EC50) in the data set with dengue virus type 1 [1] turned out to be 860 nM; in the data set on dengue virus type 3 [3], 120 nM; in the data set on dengue virus type 2 [4] it was 820 nM; in the data set on dengue virus type 4 [5] it was 80 nM; in the data set on dengue virus type 4 [6], 30 nM. Besides, the CC50 at 72 h in [2] was more than 100 µM.

In the case of `O=C(/C=C/c1ccc(Br)s1)Nc1ccc(Cl)c(Cl)c1`, the EC50 with dengue virus type 4 [7], in the data set on dengue virus type 1 [8], in the data set with dengue virus type 3 [9] and in the data set on dengue virus type 2 [10] was 40 nM throughout.

Usually IC50 stands for the concentration that gives 50% inhibition. Consider `CN(C)c1ccc(-c2nnc(/C=C/c3ccc(Br)s3)o2)cc1`, for which the IC50 in data set [11] was found to be 20 µM. `COc1ccc(-c2nnc(/C=C/c3ccc(-c4ccccc4)s3)o2)cc1`: the IC50 in [11] was 22 µM. For `C(=C\c1ccc(-c2ccccc2)s1)/c1nnc(-c2ccccc2)o1`, the half-maximal inhibitory concentration (IC50) in data set [11] stood at 18.8 µM. In the case of `FC(F)(F)c1ccc(-c2noc(/C=C/c3ccc(Br)s3)n2)cc1`, the IC50 in data set [11] turned out to be 21 µM. Consider `O=C(/C=C/c1ccc(-c2ccccc2)s1)Nc1cccc(Cl)c1`, for which the concentration giving a half-maximal response (EC50) in the data set on dengue virus type 4 [7], in the data set with dengue virus type 1 [8], in the data set with dengue virus type 3 [9] and with dengue virus type 2 [10] was 400 nM each time.

With `Brc1cccc(-c2nnc(/C=C/c3ccc(-c4ccccc4)s3)o2)c1`, the IC50 in [11] is 53.9 µM. As for `Fc1ccc(-c2nnc(/C=C/c3ccc(-c4ccccc4)s3)o2)cc1`, the IC50 in data set [11] turned out to be 17.4 µM. `FC(F)(F)Oc1ccc(-c2noc(/C=C/c3ccc(Br)s3)n2)cc1`: the IC50 in data set [11] was 32.6 µM. For the compound `O=C(/C=C/c1ccc([N+](=O)[O-])s1)Nc1ccc([N+](=O)[O-])cc1O`, in data set [11], the concentration for half-maximal inhibition (IC50) came to 1.3 µM. In the case of `CN(C)c1ccc(-c2nnc(/C=C/c3ccc(-c4ccccc4)s3)o2)cc1`, in data set [11], the half-inhibitory concentration (IC50) amounted to 41.9 µM. On to `Fc1cccc(-c2nnc(/C=C/c3ccc(Br)s3)o2)c1`, for which, in data set [11], the half-maximal inhibitory concentration (IC50) came out at 16.3 µM. Regarding `Fc1ccc(-c2nnc(/C=C/c3ccc(Br)s3)o2)cc1`, in [11], the half-inhibitory concentration (IC50) stood at 16.3 µM. On the same count and under the same terms, the value for `Clc1ccc(-c2nnc(/C=C/c3ccc(-c4ccccc4)s3)o2)cc1Cl` was 24.3 µM; that for `Brc1ccc(/C=C/c2nnc(-c3ccccc3)o2)s1` was 16.1 µM. For `O=c1cc(-c2ccc(Oc3c(O)cc4oc(-c5ccc(O)cc5)cc(=O)c4c3O)cc2)oc2cc(O)cc(O)c12` [HINOKIFLAVONE], in data set [11], the IC50 was 0.45 µM.
